Measured values from patent publication US7091182B2, “Method for assisting in differential diagnosis and treatment of autistic syndromes” (Repligen Corporation, priority 1997, dated 2006).
Entries after “also recorded” stand apart in the source; their conditions may differ.

How the values were obtained:
[1] = system: children with autistic behavior; test: Blood levels of gastrointestinal peptide hormones and neurotransmitters prior to and 10 minutes after secretin stimulation; format: in vivo, human
Experimental: After fasting from midnight, upper gastrointestinal endoscopies were carried out the next morning under general anesthesia. All gastric juice was aspirated before passing the endoscope into the duodenum. The pancreatico-biliary juice was collected after positioning the endoscope distal to the ampulla of Vater. An ERCP catheter was placed into the channel of endoscope and the fluid was collected by moving the tip into the outcoming fluid and suctioning it into a syringe. The pancreas was then stimulated with secretin 2 IU/kg BW (Ferring Laboratories, Inc. Suffern, NY, USA) given intravenously within a minute. Three additional specimens were collected after the secretin injection within a 10-minute period. Blood samples were collected prior to and 10 minutes after secretin stimulation. In a subgroup of children, the effect of duodenal acidification was determined by measurement of blood secretin levels before and 4–5 minutes after washing the second part of the duodenum with 0.05M hydrochloric acid for 5 minutes. At the end of the procedure, biopsies were obtained of the small intestine, esophagus and stomach.
Blood samples were analyzed for the levels of gastrointestinal peptide hormones (Secretin, CCK, VIP, Peptide Y) and neurotransmitters (Serotonin, Substance P). All the assays were performed in the Interscience Institute (Inglewood, Calif.) specialized in gastrointestinal hormone measurements.

[2] = system: children with autistic behavior; test: Evoked potential studies and SPECT imaging of the brain before and after secretin (Case 1); format: in vivo, human
Description: Case 1. […], was the product of a full-term uncomplicated pregnancy. Development of language and social behavior proceeded normally until about 15 months of age. At that time they lost their expressive vocabulary and their social behavior deteriorated. They were clinically diagnosed with autism by a pediatric neurologist. A multidisciplinary evaluation changed the diagnosis to PDD not otherwise specified. […] Because of their chronic diarrhea and elevated antigliadin IgG antibody titer, they underwent an upper gastrointestinal endoscopy. […] Three weeks after the procedure their parent reported significant changes in their gastrointestinal symptoms and behavior. […] More dramatic changes occurred in their autistic behavior (Table 4). […] Eight months after the procedure they have still retained their cognitive gains.

rats = conditions: ICV; cited from earlier work

Q: For secretin, which “Serotonin level after secretin injection” value ([1]; Group I (chronic loose stools/diarrhea)) is on record?
A: >50% elevation

Q: And the “Serotonin level after secretin injection” value ([1]; Group II (no diarrhea))?
A: <50% elevation

Q: And the “blood level of CCK” value ([1]; after secretin injection)?
A: no change at all

Q: What about the “blood level of VIP” value ([1]; after secretin injection) of the same substance?
A: no change at all

Q: And the “blood level of substance P” value ([1]; after secretin injection)?
A: no change at all

Q: What about the blood serotonin level ([1]; children with chronic diarrhea, ten minutes after secretin injection, fasting) of the same substance?
A: significant elevation

Q: And the “blood level of Peptide Y” value ([1]; four children, before or after secretin administration)?
A: no abnormality

Q: And the “repeat evoked potential studies” value ([2]; Case 1, eight months after secretin administration)?
A: only a minimal delay in responses

Q: What about the “SPECT, cerebral perfusion / blood flow” value ([2]; Case 1, follow-up versus pre-secretin study) of the same substance?
A: marked improvement in the cerebral blood flow; also recorded: less marked decrease in perfusion of right posterior parietal and right temporal lobes

Q: What about the defecation (rats) of the same substance?
A: significantly increased

Q: What about the novel-object approaches (rats) of the same substance?
A: decreased

Q: And the stereotypic behavior (rats)?
A: no significant effects
